Measurements published in patent publication US20110262508A1, “ANTIMICROBIAL COMPOSITIONS, FORMULATIONS AND USES THEREOF” (priority 2007, published 2011).
Peptide text beside a SMILES is read from it.

Test system: A. baumannii ATCC 19606, Acinetobacter spp. ATCC 17903, Acinetobacter spp. ATCC 19004, E. coli BL21, S. aureus, S. typhimurium AroA, P. aeruginosa, P. …
Assay: Antibacterial spectrum over the serial dilution panel (Table 6)
Assay type: cell-based
Conditions: summary of Table 6
Experimental: Synthetic peptides were tested for their ability to inhibit bacterial growth in liquid culture. The peptides were added at a concentration of between about 5 μM and about 10 μM to individual wells of 96-deep-well dishes that contained liquid growth media freshly inoculated with one of the following bacteria: A. baumannii ATCC Accession No. 19606, Acinetobacter spp. ATCC 17903, Acinetobacter spp. ATCC 19004, Escherichia coli strain BL21, S. aureus, S. typhimurium strain AroA, P. aeruginosa or P. pneumotropica. After 5-6 hours of shaking at 37° C., growth was measured as absorbance at 595 nm. As a control, cultures were grown in the presence of 0.1% acetonitrile (i.e., the concentration present in 10 μM peptide).

| Compound | selectively inhibited growth of Acinetobacter spp. ATCC 19004, and S. aureus | selectively inhibited growth of S. aureus | other results |
| --- | --- | --- | --- |
| CC[C@H](C)[C@H](NC(=O)[C@H](CCCCN)NC(=O)[C@H](CO)NC(=O)[C@H](CC(C)C)NC(=O)[C@@H](N)CC(C)C)C(=O)N[C@@H](CCCNC(=N)N)C(=O)N[C@@H](C)C(=O)N[C@@H](CC(C)C)C(=O)N[C@@H](CCCNC(=N)N)C(=O)N[C@@H](CCCNC(=N)N)C(=O)N[C@@H](CCCNC(=N)N)C(=O)N[C@@H](CCCNC(=N)N)C(=O)N[C@@H](Cc1ccccc1)C(=O)NCC(=O)N[C@@H](CCC(N)=O)C(=O)N[C@@H](CS)C(=O)N[C@@H](CC(=O)O)C(=O)N[C@@H](CCCCN)C(=O)N[C@@H](CCCNC(=N)N)C(=O)N[C@H](C(=O)N[C@@H](CO)C(=O)N[C@@H](Cc1ccc(O)cc1)C(=O)N[C@@H](CCCCN)C(=O)O)[C@@H](C)CC [Ac15] (H-LLSKIRALRRRRFGQCDKRISYK-OH; N-terminus and C-terminus assumed) | – | – | selectively inhibited growth of A. baumannii ATCC Accession No. 19606, Acinetobacter spp. ATCC 17903 and Acinetobacter spp. ATCC 19004: selectively inhibited growth |
| CC[C@H](C)[C@H](NC(=O)[C@H](CO)NC(=O)[C@H](CCCNC(=N)N)NC(=O)[C@@H]1CCCN1C(=O)[C@H](Cc1c[nH]c2ccccc12)NC(=O)[C@H](Cc1c[nH]cn1)NC(=O)[C@H](CC(N)=O)NC(=O)[C@H](Cc1c[nH]c2ccccc12)NC(=O)[C@H](CCCCN)NC(=O)[C@H](CCCCN)NC(=O)CNC(=O)[C@H](CCCCN)NC(=O)[C@H](CCC(N)=O)NC(=O)[C@H](CCCCN)NC(=O)[C@H](CCCCN)NC(=O)[C@H](CO)NC(=O)[C@H](CCCNC(=N)N)NC(=O)[C@H](CC(C)C)NC(=O)[C@H](CC(N)=O)NC(=O)[C@H](C)N)C(=O)N[C@@H](CCCCN)C(=O)N[C@@H](C)C(=O)O [Ac101] (H-ANLRSKKQKGKKWNHWPRSIKA-OH; N-terminus and C-terminus assumed) | selectively inhibited growth | – | – |
| CC[C@H](C)[C@H](NC(=O)[C@H](CCCNC(=N)N)NC(=O)[C@H](CCCNC(=N)N)NC(=O)[C@H](CS)NC(=O)CNC(=O)[C@H](CO)NC(=O)[C@@H](NC(=O)[C@@H](NC(=O)[C@H](CC(=O)O)NC(=O)[C@H](CCCCN)NC(=O)[C@@H](NC(=O)[C@H](CS)NC(=O)[C@@H](NC(=O)[C@@H](N)Cc1ccccc1)C(C)C)C(C)C)[C@@H](C)O)[C@@H](C)CC)C(=O)N[C@H](C(=O)NCC(=O)N[C@@H](Cc1ccccc1)C(=O)N[C@@H](CS)C(=O)N[C@H](C(=O)NCC(=O)N[C@@H](Cc1c[nH]c2ccccc12)C(=O)N[C@@H](CCCNC(=N)N)C(=O)N[C@@H](CC(C)C)C(=O)O)C(C)C)[C@@H](C)O [Ac102] (H-FVCVKDTISGCRRITGFCVGWRL-OH; N-terminus and C-terminus assumed) | selectively inhibited growth | – | – |
| CC(C)C[C@H](NC(=O)CNC(=O)[C@@H]1CCCN1C(=O)[C@H](Cc1c[nH]c2ccccc12)NC(=O)[C@H](CCCCN)NC(=O)[C@H](CCCCN)NC(=O)[C@H](CCCNC(=N)N)NC(=O)[C@H](C)NC(=O)[C@H](CCC(N)=O)NC(=O)[C@@H]1CCCN1)C(=O)NCC(=O)N[C@@H](CC(N)=O)C(=O)N[C@@H](CCC(=O)O)C(=O)N[C@H](C(=O)N[C@H](C(=O)N[C@@H](C)C(=O)N[C@@H](CCCNC(=N)N)C(=O)N[C@@H](CC(C)C)C(=O)N[C@@H](CC(C)C)C(=O)N[C@H](C(=O)N[C@H](C(=O)N[C@@H](CO)C(=O)N[C@@H](C)C(=O)O)C(C)C)[C@@H](C)O)[C@@H](C)O)C(C)C [Ac100] (H-PQARKKWPGLGNEVTARLLTVSA-OH; N-terminus and C-terminus assumed) | – | selectively inhibited growth | – |
| CC[C@H](C)[C@H](NC(=O)[C@H](CC(C)C)NC(=O)[C@H](CCCNC(=N)N)NC(=O)[C@@H](NC(=O)[C@@H](NC(=O)[C@H](Cc1ccc(O)cc1)NC(=O)[C@H](CCCCN)NC(=O)[C@@H](N)Cc1ccc(O)cc1)[C@@H](C)CC)[C@@H](C)CC)C(=O)N[C@@H](CCC(=O)O)C(=O)N[C@@H](CC(N)=O)C(=O)N[C@@H](Cc1c[nH]c2ccccc12)C(=O)NCC(=O)N[C@@H](CCC(=O)O)C(=O)N[C@@H](CS)C(=O)NCC(=O)N[C@@H](CS)C(=O)N[C@@H](CCCNC(=N)N)C(=O)N[C@@H](Cc1ccc(O)cc1)C(=O)N[C@@H](CS)C(=O)N[C@@H](CCCNC(=N)N)C(=O)N[C@H](C(=O)N[C@H](C(=O)N[C@@H](CCCNC(=N)N)C(=O)O)C(C)C)[C@@H](C)CC [Ac18] (H-YKYIIRLIENWGECGCRYCRIVR-OH; N-terminus and C-terminus assumed) | – | selectively inhibited growth | – |
| CC[C@H](C)[C@H](NC(=O)CN)C(=O)NCC(=O)N[C@@H](CCCCN)C(=O)N[C@@H](Cc1ccccc1)C(=O)N[C@@H](CC(C)C)C(=O)N[C@@H](Cc1c[nH]cn1)C(=O)N[C@@H](CO)C(=O)N[C@@H](C)C(=O)N[C@@H](CCCCN)C(=O)N[C@@H](CCCCN)C(=O)N[C@@H](Cc1ccccc1)C(=O)NCC(=O)N[C@@H](CCCCN)C(=O)N[C@@H](C)C(=O)N[C@@H](Cc1ccccc1)C(=O)N[C@H](C(=O)NCC(=O)N[C@@H](CCC(=O)O)C(=O)N[C@H](C(=O)N[C@@H](CCSC)C(=O)N[C@@H](CC(N)=O)C(=O)N[C@@H](CO)C(=O)O)[C@@H](C)CC)C(C)C [Ac178, reference compound] (H-GIGKFLHSAKKFGKAFVGEIMNS-OH; N-terminus and C-terminus assumed) | – | selectively inhibited growth | – |
| CC[C@H](C)[C@H](NC(=O)[C@H](CCSC)NC(=O)[C@H](Cc1c[nH]c2ccccc12)NC(=O)[C@@H](N)Cc1c[nH]cn1)C(=O)N1CCC[C@H]1C(=O)N[C@@H](CC(C)C)C(=O)N[C@@H](CCCNC(=N)N)C(=O)N[C@@H](CCCCN)C(=O)NCC(=O)N[C@@H](C)C(=O)N[C@@H](CCC(N)=O)C(=O)N[C@@H](Cc1ccc(O)cc1)C(=O)N[C@@H](CCC(=O)O)C(=O)N[C@@H](CCC(=O)O)C(=O)N[C@@H](CC(C)C)C(=O)N[C@@H](CCCNC(=N)N)C(=O)N[C@@H](CCCCN)C(=O)N[C@@H](CC(C)C)C(=O)N[C@@H](CO)C(=O)N[C@@H](CCCCN)C(=O)NCC(=O)N[C@@H](CC(=O)O)C(=O)N[C@@H](Cc1c[nH]cn1)C(=O)O [Ac97] (H-HWMIPLRKGAQYEELRKLSKGDH-OH; N-terminus and C-terminus assumed) | – | selectively inhibited growth | – |
| CC[C@H](C)[C@H](NC(=O)[C@H](Cc1c[nH]c2ccccc12)NC(=O)[C@H](CC(=O)O)NC(=O)[C@H](CO)NC(=O)[C@H](CO)NC(=O)[C@H](CC(C)C)NC(=O)[C@H](CC(C)C)NC(=O)[C@H](C)NC(=O)[C@H](CO)NC(=O)[C@H](CCCNC(=N)N)NC(=O)[C@H](CC(C)C)NC(=O)[C@@H](N)CCCNC(=N)N)C(=O)N[C@H](C(=O)N[C@@H](CO)C(=O)N[C@@H](CO)C(=O)N[C@@H](CCCNC(=N)N)C(=O)N[C@@H](CC(C)C)C(=O)N[C@@H](CC(C)C)C(=O)NCC(=O)N[C@H](C(=O)N[C@@H](CC(N)=O)C(=O)N[C@@H](CO)C(=O)N[C@@H](CCC(N)=O)C(=O)O)C(C)C)C(C)C [Ac41] (H-RLRSALLSSDWIVSSRLLGVNSQ-OH; N-terminus and C-terminus assumed) | selectively inhibited growth | – | – |
| CC[C@H](C)[C@H](NC(=O)[C@H](CC(C)C)NC(=O)[C@H](CCCCN)NC(=O)[C@@H](N)Cc1ccccc1)C(=O)N1CCC[C@H]1C(=O)N[C@H](C(=O)N[C@@H](CCCNC(=N)N)C(=O)N[C@@H](CCCNC(=N)N)C(=O)N[C@@H](CO)C(=O)N[C@@H](CO)C(=O)N[C@@H](CC(C)C)C(=O)N[C@H](C(=O)N[C@@H](CCCCN)C(=O)N[C@@H](CO)C(=O)N[C@@H](CC(C)C)C(=O)N1CCC[C@H]1C(=O)N[C@@H](C)C(=O)N[C@@H](Cc1ccccc1)C(=O)N[C@@H](CCCNC(=N)N)C(=O)N[C@@H](CCCNC(=N)N)C(=O)N[C@@H](CCCCN)C(=O)N[C@@H](C)C(=O)N1CCC[C@H]1C(=O)O)C(C)C)[C@@H](C)O [Ac116] (H-FKLIPTRRSSLVKSLPAFRRKAP-OH; N-terminus and C-terminus assumed) | – | – | selectively inhibited growth of Acinetobacter spp. ATCC 19004: selectively inhibited growth |
| CC[C@H](C)[C@H](NC(=O)[C@H](CCCNC(=N)N)NC(=O)[C@H](CCCNC(=N)N)NC(=O)[C@H](CS)NC(=O)CN)C(=O)N[C@H](C(=O)NCC(=O)N[C@@H](Cc1ccccc1)C(=O)N[C@@H](CS)C(=O)N[C@H](C(=O)NCC(=O)N[C@@H](Cc1c[nH]c2ccccc12)C(=O)N[C@@H](CCCNC(=N)N)C(=O)N[C@@H](CC(C)C)C(=O)N[C@@H](CC(C)C)C(=O)N[C@@H](CC(C)C)C(=O)N[C@@H](CC(C)C)C(=O)N[C@@H](CC(C)C)C(=O)N[C@H](C(=O)NCC(=O)N[C@@H](CO)C(=O)NCC(=O)N[C@H](C(=O)O)C(C)C)[C@@H](C)O)C(C)C)[C@@H](C)O [Ac103] (H-GCRRITGFCVGWRLLLLLTGSGV-OH; N-terminus and C-terminus assumed) | – | selectively inhibited growth | – |
